Assay results as given in paper PMC7763331, “First Evidence of a Protective Effect of Plant Bioactive Compounds against H2O2-Induced Aconitase Damage in Durum Wheat Mitochondria” (Antioxidants, 2020).

Key:
[1] = molecular target: T1, m-aconitase (Sus scrofa, UniProt P16276); assay: aconitase/isocitrate dehydrogenase coupled assay, NADPH absorbance at […] nm; assay type: biochemical; details: pH 8.0, 25 °C, 20 mM citrate; 10 min pre-incubation, no H2O2; activator
T1 construct: gene ACO2
T1 sequence (P16276 28-781): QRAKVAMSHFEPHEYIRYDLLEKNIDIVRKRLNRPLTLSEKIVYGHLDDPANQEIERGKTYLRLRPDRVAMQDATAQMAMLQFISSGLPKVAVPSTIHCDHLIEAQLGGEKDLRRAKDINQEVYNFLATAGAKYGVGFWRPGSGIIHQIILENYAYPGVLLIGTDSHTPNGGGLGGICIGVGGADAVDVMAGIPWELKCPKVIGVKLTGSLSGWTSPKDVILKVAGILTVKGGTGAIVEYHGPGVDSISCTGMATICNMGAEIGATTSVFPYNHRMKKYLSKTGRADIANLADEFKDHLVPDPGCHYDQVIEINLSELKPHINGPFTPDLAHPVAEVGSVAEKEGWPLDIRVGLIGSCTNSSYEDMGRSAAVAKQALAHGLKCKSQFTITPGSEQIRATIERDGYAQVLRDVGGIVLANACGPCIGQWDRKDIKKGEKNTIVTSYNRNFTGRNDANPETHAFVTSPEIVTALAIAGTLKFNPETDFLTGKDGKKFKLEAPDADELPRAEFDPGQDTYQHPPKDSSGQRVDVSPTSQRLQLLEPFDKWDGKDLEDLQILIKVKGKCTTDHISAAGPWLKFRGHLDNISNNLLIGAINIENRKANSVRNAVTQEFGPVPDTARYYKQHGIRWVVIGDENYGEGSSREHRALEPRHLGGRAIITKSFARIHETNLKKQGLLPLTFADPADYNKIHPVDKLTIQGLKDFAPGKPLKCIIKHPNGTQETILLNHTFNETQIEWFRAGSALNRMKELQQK

[2] = tested on: T2, DWM-aconitase; details: 100 mM Tris-HCl pH 8.0, 0.1% Triton X-100, 25 °C, 1 mM NADP+, 5 mM MnCl2; citrate 0.5–20 mM; lysed mitochondria
T2 construct: gene ACO

[3] = molecular target: T1, m-aconitase; assay: aconitase/isocitrate dehydrogenase coupled assay, NADPH absorbance at […] nm; assay type: biochemical; details: pH 8.0, 25 °C, 20 mM citrate; 10 min pre-incubation, no H2O2; activator, upper limit (up to about)
[4] = molecular target: T1, m-aconitase; assay: as above; assay type: biochemical; details: pH 8.0, 25 °C, 20 mM citrate; 10 min pre-incubation, no H2O2; activator, upper limit (up to about); remark: listed apart in the source

`O=c1cc(-c2ccc(O)cc2)oc2cc(O)cc(O)c12` [apigenin] was tested, and the “% activation at 50-150 μM” value [1] was ~ 10%.

With `O=C(O)CC(O)(CC(=O)O)C(=O)O` [citrate] the Km [2] was 4.8 ± 0.9 mM.

For `COc1cc(/C=C/C(=O)O)ccc1O` [ferulic acid], the “% activation at 100-150 μM” value [3] was ~ 10%.

`O=c1c(O)c(-c2ccc(O)c(O)c2)oc2cc(O)cc(O)c12` [quercetin] was tested, and the “% activation at 150 μM” value [4] was ~ 20%.
